Here are results for 22 molecules from PubChem BioAssay AID330 (DTP/NCI, 2004).

Values joined by “and” are separate entries in the source; they are usually repeats but may differ in a detail not shown here. Identical values can stand only once. Toxic doses and inconclusive results are not listed.

The assay concerns P388 leukemia ip, CD2F1 mice, survival T/C. Kind of assay: NCI In Vivo Anticancer Drug Screen. Data for tumor model P388 Leukemia (intraperitoneal) in CD2F1 (CDF1) mice. The conditions noted are these: endpoint: median survival time, higher = longer survival. In short, it runs like this: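 Mice carrying the transplanted tumor received test compound or vehicle. Survival was recorded in each group, and the value is the treated-group measurement divided by that of the vehicle-treated control group.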

Setting [1] is: dose: 50.0 mg/kg/injection, schedule: Q01DX009 (ip), vehicle: saline with Tween-80.
[2] abbreviates: dose: 100.0 mg/kg/injection, schedule: Q01DX009 (ip), vehicle: saline with Tween-80.
The mark [3] stands for this setting: dose: 200.0 mg/kg/injection, schedule: Q01DX009 (ip), vehicle: saline with Tween-80.
The mark [4] stands for this setting: dose: 60.0 mg/kg/injection, schedule: Q01DX005 (ip), vehicle: saline with Tween-80.
[5] abbreviates: dose: 120.0 mg/kg/injection, schedule: Q01DX005 (ip), vehicle: saline with Tween-80.
Where [6] appears, read: dose: 240.0 mg/kg/injection, schedule: Q01DX005 (ip), vehicle: saline with Tween-80.
The mark [7] stands for this setting: dose: 12.5 mg/kg/injection, schedule: Q01DX009 (ip), vehicle: Klucel (hydroxypropylcellulose) (HPC).
Where [8] appears, read: dose: 25.0 mg/kg/injection, schedule: Q01DX009 (ip), vehicle: Klucel (hydroxypropylcellulose) (HPC).

Take `COc1cc2c(cc1OC)[C@H]1O[C@H](OC)c3c(ccc4c3OCO4)[C@H]1N(C)CC2`: the T/C reads like this: (dose: 7.25 mg/kg/injection, schedule: Q01DX005 (ip), vehicle: Klucel (hydroxypropylcellulose) (HPC)) 106 % of control; (dose: 14.5 mg/kg/injection, schedule: Q01DX005 (ip), vehicle: Klucel (hydroxypropylcellulose) (HPC)) 100 % of control; (dose: 29.0 mg/kg/injection, schedule: Q01DX005 (ip), vehicle: Klucel (hydroxypropylcellulose) (HPC)) 106 % of control; (dose: 58.0 mg/kg/injection, schedule: Q01DX005 (ip), vehicle: Klucel (hydroxypropylcellulose) (HPC)) 96 % of control.

In the case of `COC(=O)C(Cc1cc(OC)c(OC)c(OC)c1I)C(=O)OC`, the T/C is 102 % of control (dose: 100.0 mg/kg/injection, schedule: Q01DX001 (ip), vehicle: saline with Tween-80); 100 % of control (dose: 200.0 mg/kg/injection, schedule: Q01DX001 (ip), vehicle: saline with Tween-80); 103 % of control (dose: 400.0 mg/kg/injection, schedule: Q01DX001 (ip), vehicle: saline with Tween-80).

For the molecule `O=C(N/N=C/c1ccccc1O)C(=O)NC1CC1`, the T/C is, setting by setting: under setting [1], 92 % of control; under setting [2], 91 % of control; under setting [3], 91 % of control.

Consider `CCNC(=NC)c1ccc(NC(=O)c2ccc(C(=O)Nc3ccc(C(=NC)NCC)cc3)cc2)cc1`, for which the T/C (dose: 1.5 mg/kg/injection, schedule: Q04DX003 (ip), vehicle: saline with Tween-80) was 95 % of control; the T/C (dose: 3.0 mg/kg/injection, schedule: Q01DX009 (ip), vehicle: saline with Tween-80) is 172 % of control; the T/C (dose: 3.0 mg/kg/injection, schedule: Q04DX003 (ip), vehicle: saline with Tween-80) is 100 % of control; the T/C (dose: 6.0 mg/kg/injection, schedule: Q04DX003 (ip), vehicle: saline with Tween-80) is 109 % of control.

As to `O=[N+]([O-])c1ccc(Sc2ccncn2)c([N+](=O)[O-])c1`, the T/C reads like this: (dose: 12.5 mg/kg/injection, schedule: Q01DX009 (ip), vehicle: saline with Tween-80) 91 % of control; (dose: 25.0 mg/kg/injection, schedule: Q01DX009 (ip), vehicle: saline with Tween-80) 116 % of control; under setting [1], 123 % of control; under setting [2], 116 % of control.

Consider `O=C(CN1CCN(CCO)CC1)N1c2ccccc2Sc2ccc(C(F)(F)F)cc21`, for which the T/C is 101 % of control (dose: 100.0 mg/kg/injection, schedule: Q04DX002 (ip), vehicle: saline) and 90 % of control (dose: 200.0 mg/kg/injection, schedule: Q04DX002 (ip), vehicle: saline).

Turning to `COC(=O)C1=C(C(=O)OC)C2(c3ccccc3-c3ccccc32)C2C=CC=NN12` (stereo not given), the T/C reads like this: (dose: 50.0 mg/kg/injection, schedule: Q01DX005 (ip), vehicle: Klucel (hydroxypropylcellulose) (HPC)) 100 % of control; (dose: 100.0 mg/kg/injection, schedule: Q01DX005 (ip), vehicle: Klucel (hydroxypropylcellulose) (HPC)) 103 % of control; (dose: 200.0 mg/kg/injection, schedule: Q01DX005 (ip), vehicle: Klucel (hydroxypropylcellulose) (HPC)) 100 % of control.

As for `CCC1(O)C(=O)c2ccccc2N(c2ccccc2)C1=O` (stereo not given), the T/C is 91 % of control (dose: 60.0 mg/kg/injection, schedule: Q01DX005 (ip), vehicle: Klucel (hydroxypropylcellulose) (HPC)); 90 % of control (dose: 120.0 mg/kg/injection, schedule: Q01DX005 (ip), vehicle: Klucel (hydroxypropylcellulose) (HPC)); 90 % of control (dose: 240.0 mg/kg/injection, schedule: Q01DX005 (ip), vehicle: Klucel (hydroxypropylcellulose) (HPC)).

Consider `Oc1cc2c(cc1C(c1ccc3c(c1)OCO3)n1ccnc1)OCO2` (stereo not given), for which the T/C was 108 % of control under setting [4], 98 % of control under setting [5] and 94 % of control under setting [6].

On to `CCc1ccc(N=Cc2ccc(OC(=O)c3ccc(OC)cc3)c(OC)c2)cc1`, for which the T/C by setting is: under setting [4], 96 % of control; under setting [5], 94 % of control; under setting [6], 92 % of control.

As to `COc1ccc(CN2COc3c(cc(C)c4cccnc34)C2)cc1`, the T/C under setting [1] was 98 % of control and the T/C under setting [3] is 111 % of control.

Take `COc1cc2c(cc1OC)C13CCN4C=C5CCOC6CC(=O)N2C1C6C5CC43` (stereo not given): the T/C (dose: 15.0 mg/kg/injection, schedule: Q01DX005 (ip), vehicle: saline) is 97 % of control; the T/C (dose: 30.0 mg/kg/injection, schedule: Q01DX005 (ip), vehicle: saline) is 98 % of control; the T/C (dose: 60.0 mg/kg/injection, schedule: Q01DX005 (ip), vehicle: saline) was 100 % of control and 103 % of control.

As for `Nc1nc(-c2ccccn2)cc2c(Cl)cccc12`, the T/C was 86 % of control under setting [4], 115 % of control under setting [5] and 97 % of control under setting [6].

Consider `CCC(=N\N=C(N)N)/C(CC)=N/N=C(N)N`, for which the T/C is 101 % of control under setting [4] and 97 % of control under setting [5].

For the molecule `CN(C)c1ccc(/C=C/c2cc[n+](C)cc2)cc1`, the T/C (dose: 2.0 mg/kg/injection, schedule: Q01DX009 (ip), vehicle: saline with Tween-80) was 110 % of control; the T/C (dose: 2.0 mg/kg/injection, schedule: Q04DX003 (ip), vehicle: saline with Tween-80) is 91 % of control; the T/C (dose: 4.0 mg/kg/injection, schedule: Q01DX009 (ip), vehicle: saline with Tween-80) is 100 % of control; the T/C (dose: 4.0 mg/kg/injection, schedule: Q04DX003 (ip), vehicle: saline with Tween-80) is 100 % of control; the T/C (dose: 8.0 mg/kg/injection, schedule: Q01DX009 (ip), vehicle: saline with Tween-80) was 100 % of control; the T/C (dose: 8.0 mg/kg/injection, schedule: Q04DX003 (ip), vehicle: saline with Tween-80) was 108 % of control.

As to `c1cc[c]([Bi]([c]2ccccc2)[c]2ccccc2)cc1`, the T/C was 103 % of control under setting [7]; 106 % of control under setting [8]; 101 % of control and 112 % of control (dose: 50.0 mg/kg/injection, schedule: Q01DX009 (ip), vehicle: Klucel (hydroxypropylcellulose) (HPC)).

As to `Cc1cc(-c2ccccc2)n(C(C(=O)c2ccccc2)c2ccccc2)n1` (stereo not given), the T/C reads like this: under setting [1], 101 % of control; under setting [2], 106 % of control; under setting [3], 100 % of control.

As for `CCOC(=O)C1=Nc2cccc3c(O)ccc1c23`, the T/C was 113 % of control (dose: 50.0 mg/kg/injection, schedule: Q01DX005 (ip), vehicle: saline with Tween-80); 109 % of control (dose: 100.0 mg/kg/injection, schedule: Q01DX005 (ip), vehicle: saline with Tween-80); 111 % of control (dose: 200.0 mg/kg/injection, schedule: Q01DX005 (ip), vehicle: saline with Tween-80).

Consider `O=C1NC2CCC1CC2`, for which the T/C by setting is: (dose: 50.0 mg/kg/injection, schedule: Q01DX005 (ip), vehicle: suspension in saline) 101 % of control; (dose: 100.0 mg/kg/injection, schedule: Q01DX005 (ip), vehicle: suspension in saline) 97 % of control; (dose: 200.0 mg/kg/injection, schedule: Q01DX005 (ip), vehicle: suspension in saline) 102 % of control.

Consider `CC1=CC(=O)C(/C=C(\C)[N+](=O)[O-])=CC1=O`, for which the T/C runs as follows: under setting [7], 97 % of control; under setting [8], 99 % of control.

As for `CCC1CN2CCc3cc(OC)c(OC)cc3C2CC1=O` (stereo not given), the T/C is, setting by setting: (dose: 12.5 mg/kg/injection, schedule: Q01DX009 (ip), vehicle: saline) 104 % of control; (dose: 25.0 mg/kg/injection, schedule: Q01DX009 (ip), vehicle: saline) 99 % of control; (dose: 37.5 mg/kg/injection, schedule: Q04DX003 (ip), vehicle: saline with Tween-80) 101 % of control; under setting [1], 107 % of control; (dose: 50.0 mg/kg/injection, schedule: Q01DX009 (ip), vehicle: saline) 99 % of control and 103 % of control; (dose: 75.0 mg/kg/injection, schedule: Q04DX003 (ip), vehicle: saline with Tween-80) 121 % of control. The T/C is 112 % of control under setting [2]; 96 % of control and 97 % of control (dose: 100.0 mg/kg/injection, schedule: Q01DX009 (ip), vehicle: saline); 107 % of control under setting [3]; 106 % of control (dose: 200.0 mg/kg/injection, schedule: Q01DX009 (ip), vehicle: saline).

As to `CCCCC1N=CNc2c1ccc1c2[nH]c2ccccc21` (stereo not given), the T/C was 101 % of control (dose: 12.5 mg/kg/injection, schedule: Q04DX002 (ip), vehicle: saline with Tween-80); 99 % of control (dose: 25.0 mg/kg/injection, schedule: Q04DX002 (ip), vehicle: saline with Tween-80); 111 % of control (dose: 50.0 mg/kg/injection, schedule: Q04DX002 (ip), vehicle: saline with Tween-80).
